Results: patent publication US12605382B2, “Pharmaceutical composition for preventing, alleviating, or treating cancer containing 2,6-dichloro-4-(4-(4-hydroxycyclohexylamino)-7H- pyrrolo[2,3-d]pyrimidin-5-yl)phenol as active ingredient” (JBKLAB CO., LTD., priority 2021, dated 2026)

Tests used:
BRD4 = experiment: Western blotting of tumor tissue from MDA-MB-231 tumor-bearing mice; format: in vivo, BALB/c-nude mice; conditions: 5, 10 and 20 mg/kg (T4, T5, T6), once by intravenous injection
Description: (§1) An experiment was performed to confirm the inhibitory effect of the compound of Example 1, the active ingredient of the pharmaceutical composition of the present invention, on the expression of major proteins on cancer cell growth through Western blotting.
(§2) Specifically, MDA-MB-231 cells, a TNBC cell line, were cultured in a 37° C., 5% CO2 incubator, and the medium used for cell culture was RPMI-1640 supplemented with 10% FBS. Tumors were induced by subcutaneously injecting 5×10^6/head/100 μl of MDA-MB-231 cells into the right neck of BALB/c-nude mice (5 mice each in control and administration groups), and the experiment was performed when the tumor size reached 200 mm^3. The compound of Example 1, the active ingredient of the pharmaceutical composition of the present invention, was administered once by intravenous injection at concentrations of 5, 10, and 20 mg/kg (T4, T5, and T6) and then euthanized using CO2, and the resulting tumor tissues from the control and administration groups were taken and subjected to Western blotting. Proteins were isolated from the tumor tissues and the results of Western blotting were confirmed using BRD4, c-myc, PD-L1, and Actin antibodies, respectively.

PD-L1 = experiment: as above; format: in vivo, BALB/c-nude mice; conditions: 5, 10 and 20 mg/kg (T4, T5, T6), once by intravenous injection
Description: as §1, §2

c-myc = experiment: as above; format: in vivo, BALB/c-nude mice; conditions: 5, 10 and 20 mg/kg (T4, T5, T6), once by intravenous injection
Description: as §1, §2

[1] = tested on: breast cancer cells (MBA-MB-231); experiment: Xenograft tumor growth inhibition, TNBC cells in nude mice; format: in vivo; conditions: xenograft Balb/c nude mice, tumor size measured for 3 weeks
Description: An experiment was performed to confirm the tumor inhibition of the compound of Example 1, the active ingredient of the pharmaceutical composition of the present invention, on a xenograft tumor sample of breast cancer cells (MBA-MB-231), a human-derived TNBC cell line.
Specifically, to confirm the […] inhibitory effect of the compound of Example 1, the active ingredient of the pharmaceutical composition of the present invention, on breast cancer cell viability, an experiment was performed using 80 female 5-week-old xenograft Balb/c nude mice, which were approximately 8 weeks old at the start of administration.
The experimental xenograft Balb/c nude mice lacks T cells, the immune cells, were selected as an animal model suitable for transplanting human cancer cells. At the time of administration, animals within ±20% of the total average body weight were selected, and tumor growth was checked twice a week on the surface, and the size of the tumor was measured with a vernier caliper for 3 weeks.

SKOV-3 = experiment: Cell viability alone and in combination with cisplatin; format: cell-based, Human
Description: (§3) Human ovarian cancer cell lines (SKOV-3 and OVCAR-3) were treated with control (no treatment), 0.1 μM of the compound of Example 1, 1 μM of cisplatin, and 0.1 μM of the compound of Example 1/1 μM of cisplatin, and the cell viability of SKOV-3 and OVCAR-3 was confirmed.

OVCAR-3 = experiment: as above; format: cell-based, Human
Description: as §3

BT20 = experiment: Cell viability assay (WST-8), breast cancer cell line; format: cell-based, human; conditions: dose dependently
Description: An experiment was performed to confirm the growth inhibitory effect of the compound of Example 1, the active ingredient of the pharmaceutical composition of the present invention, on breast cancer cell lines through cell viability assay.
Specifically, the cell viability assay was performed as follows. BT20, a human-derived breast cancer cell line, and MDA-MB-231, a TNBC cell line, were each seeded in 96-well plates at the density of 5×10^3 cells/well and cultured for 24 hours. Then, I-bet 762 and the compound of Example 1 were treated thereto at different concentrations and cultured for 48 hours. At the end of the culture, 100 μl of WST-8 solution was added to each well of the plate, and the absorbance was measured with a microplate reader using a 450 nm optical filter to measure the formazan produced by the reducing factors in living cells.
FIGS. 4A-4C show the cell viability of MDA-MB-231, MDA-MB-453, and BT-20 after 24 hours of treatment with the compound of Example 1. As shown in FIGS. 4A-4C, it was confirmed that the cell viability was suppressed not only in general breast cancer cell lines, but also in TNBC cell lines dose dependently.

HepG2 = experiment: Clonogenic assay; format: cell-based; conditions: 2.5 and 5 μM, 10 days
Description: (§4) HepG2 and Hep3B were each seeded in 12-well plates at the density of 3×10^3 cells/well and cultured for 24 hours. Then, Sorafenib and the compound of Example 1 were treated thereto at 2.5 and 5 μM each and cultured for 10 days. Upon completion of the culture, the cells were washed with PBS, fixed with 37% formaldehyde, and stained with 0.01% crystal violet. After staining, the cells were washed with distilled water and the colonies of stained cells were photographed.

Hep3B = experiment: Clonogenic assay; format: cell-based; conditions: 2.5 and 5 μM, 10 days
Description: as §4

SK-OV-3 = experiment: Cytotoxicity on cancer cell lines; format: cell-based; conditions: SK-OV-3, dose dependently
Description: (§5) The cytotoxicity of the compound of Example 1 against various cancer cell lines was evaluated through a process similar to the evaluation of liver cancer cell line inhibition described above. Etoposide, sold as an anticancer agent, was used as a control group drug.

SK-MEL-2 = experiment: Cytotoxicity on cancer cell lines; format: cell-based; conditions: SK-MEL-2, dose dependently
Description: as §5

A549 = experiment: Cytotoxicity on cancer cell lines; format: cell-based; conditions: A549, dose dependently
Description: as §5

HCT15 = experiment: Cytotoxicity on cancer cell lines; format: cell-based; conditions: HCT15, dose dependently
Description: as §5

[2] = 0.1 μM Example 1 combined with 1 μM cisplatin

Compound: Oc1c(Cl)cc(-c2c[nH]c3ncnc(N[C@H]4CC[C@H](O)CC4)c23)cc1Cl [Example 1, (trans)-2,6-dichloro-4-(4-(4-hydroxycyclohexylamino)-7H-pyrrolo[2,3-d]pyrimidin-5-yl)phenol]
- expression of BRD4 in tumor tissue vs untreated negative control (NC) (BRD4): reduced
- expression of PD-L1 in tumor tissue vs untreated negative control (NC) (PD-L1): reduced
- expression of c-myc in tumor tissue vs untreated negative control (NC) (c-myc): reduced
- tumor growth [1]: significantly inhibit the tumor growth
- cell viability (SKOV-3; [2]): further inhibited (synergistic effect)
- cell viability (SKOV-3; 0.1 μM alone): suppressed
- cell viability (OVCAR-3; [2]): further inhibited (synergistic effect)
- cell viability (OVCAR-3; 0.1 μM alone): suppressed
- cell viability (BT20; BT20, 48 hours): inhibited the cell viability
- cell viability (BT20; BT-20, 24 hours): suppressed
- number of colonies, treated vs not treated (HepG2): clear difference in the number of colonies
- number of colonies, treated vs not treated (Hep3B): clear difference in the number of colonies
- toxicity to cancer cell line (SK-OV-3): excellent toxicity
- toxicity to cancer cell line (SK-MEL-2): excellent toxicity
- toxicity to cancer cell line (A549): excellent toxicity
- toxicity to cancer cell line (HCT15): excellent toxicity
